Measured values reported in ChEMBL document CHEMBL6096644, “Synthesis and structure-affinity relationships of spirocyclic σ1 receptor ligands with tetrahydropyran scaffold” (Eur J Med Chem, 2025).

Assays:
physchem = settings: n-octanol/MOPS aqueous buffer, pH 7.4
Description: Distribution coefficient, logD of compound in n-Octanol/MOPS aqueous buffer at pH 7.4 by shake-flask method based mass spectrometry analysis

in vitro [1] = settings: human, human serum
Description: Plasma protein binding in human serum by HPAC analysis

in vitro [2] = settings: mouse, liver microsomes
Description: Metabolic stability in mouse liver microsomes assessed as parent compound remaining measured after 90 mins in presence of NADPH/H+ by HPLC analysis

Row | SMILES | logD (physchem) | fraction unbound (in vitro [1]) | remaining at 1.5 h (in vitro [2])
1 | c1cc2c(cc1C1CCOC3(CCN(CC4CCCC4)CC3)C1)CCO2 (stereo not given) | 2.34 |  | 
2 | Oc1cccc(CN2CCC3(CC2)CC(CCc2ccccc2)CCO3)c1 (stereo not given) | 3.33 |  | 
3 | O=c1oc2ccccc2n1C1CCOC2(CCN(Cc3ccccc3)CC2)C1 (stereo not given) | 2.42 | 0.15 | 74%
